Reference: patent US7790762B2, “Compounds and methods for thiol-containing compound efflux and cancer treatment” (National Jewish Health, priority 2002, dated 2010)
Where two headings read alike, the source gives them in different places.

Experiments:
Type in all cases: cell-based, human
A549 cells [1] = assay: Intracellular GSH levels by HPLC-EC in A549 cells; conditions: for activity at 25 µM / activity at 50 µM / activity at 75 µM: Homo sapiens; for activity at 75 µM: A549, 75 μM
Procedure: (§1) Cell lines and culture conditions. Human lung epithelial cancer (A549), human leukemia HL-60 and human prostate (PC-3) tumor cells were purchased from ATCC (Manassas, Va.). A549 and PC-3 cells were grown in Ham's F12 medium (F12) and Kaighn's modification of Ham's F12 medium (F12K) with 2 mM L-glutamine (ATCC), respectively, supplemented with 10% fetal bovine serum (FBS) and 5% pen/strep (10,000 unit, Cellgro). HL-60 cells were grown in Iscove's modified Dulbecco's medium with 4 mM L-glutamine (ATCC) supplemented with 20% FBS and 5% pen/strep. Cell were grown in T-75 flask at 37° C. and 5% CO2 air atmosphere and in 24-well plates for GSH levels and LDH release measurements.
(§2) Intracellular levels of GSH. Intracellular GSH levels can be determined by HPLC-EC. Cultured cells from 24-well plates were washed once with 1 ml of PBS and then re-suspended in 0.5 ml of distilled water with 40 μM of digitonin (2 mM stock solution in DMSO) for 30 min at room temperature. Then, 50 μl of 10% meta-phosphoric acid were added (1% final concentration), the samples were sonicated for 2 min, centrifuged at 20,000 g for 10 min, and 0.2 ml of supernatant placed in vials for HPLC analysis. […] The flow rate was […]. The retention time for GSH in these conditions was 7.5 min. The HPLC instrument was from ESA, Inc. (Chelmsford, Mass.), equipped with an autosampler (model 540) and a Coul array detector (model 5600A). The potential applied was +0.75 V vs. H/Pd electrode, and the injection volume 5 μl.

PC-3 cells [2] = assay: Cytotoxicity as LDH release in PC-3 cells; conditions: for LDH release, % of control at 50 µM: Homo sapiens, read-out: LDH rel. % con.
Procedure: as §1
(§3) Assessment of cytotoxicity. In one exemplary method, membrane integrity of A549, HL-60 and PC-3 cells was used as an index of drug-induced cytotoxicity, and was assessed by monitoring the release of cytosolic lactate dehydrogenase (LDH). LDH activity was measured in the culture medium and cell lysates (50 mM HEPES, Triton X-100 0.5%, pH 7) using a plate reader format as previously described (41). Briefly, 5 μl of cell culture supernatant and lysates were incubated with 0.24 mM NADH in a Tris/NaCl pH 7.2 buffer in 96-well plates for 5 min at 25° C. The reaction was started by the addition of 9.8 mM pyruvate and the consumption of NADH followed at 340 nm for 5 min at 30° C. Percent LDH release was calculated by the following: (supernatant LDH/supernatant LDH+lysate LDH)×100.

PC-3 cells [3] = assay: Intracellular GSH levels by HPLC-EC in PC-3 cells; conditions: for Int. GSH % con. / activity at 25 µM: PC-3, 25 μM; for Int. GSH % con. / activity at 50 µM / activity at 25 µM: 24 hours treatment; for activity at 50 µM / activity at 25 µM: Homo sapiens, read-out: Int. GSH % con.; for activity at 50 µM: PC-3, 50 μM
Procedure: as §1, §2

HL-60 cells [4] = assay: Intracellular GSH levels by HPLC-EC in HL-60 cells; conditions: for Int. GSH % con. / activity at 75 µM / activity at 25 µM / activity at 50 µM: 24 hours treatment; for activity at 75 µM / activity at 25 µM / activity at 50 µM: Homo sapiens, read-out: Int. GSH % con.; for activity at 75 µM: HL-60, 75 μM; for effect on intracellular GSH (words): HL-60 cells
Procedure: as §1, §2

A549 cells [5] = assay: Cytotoxicity as LDH release in A549 cells; conditions: 48 hours treatment
Procedure: as §1, §3

HL-60 cells [6] = assay: Cytotoxicity as LDH release in HL-60 cells; conditions: for LDH rel. % con. / LDH release, % of control at 50 µM / LDH release, % of control at 25 µM: 48 hours treatment; for LDH release, % of control at 50 µM / LDH release, % of control at 25 µM: Homo sapiens, read-out: LDH rel. % con.; for toxicity: HL-60 cells
Procedure: as §1, §3

[7] = A549, 25 μM, 2 h, read-out: Intracellular GSH levels, % compared to control
[8] = PC-3, 50 μM, 48 hours treatment
[9] = Homo sapiens, A549, 75 μM, read-out: LDH rel. % con.
[10] = A549, 50 μM, 24 hours treatment, read-out: Int. GSH % con.
[11] = 24 hours treatment, read-out: Int. GSH % con.
[12] = A549, 25 μM, 24 hours treatment, read-out: Int. GSH % con.

## COc1ccc2c(=O)cc(-c3ccccc3)oc2c1 [7-MF, 7-Methoxyflavone]
A549 cells [1]; A549 cells
  effect on intracellular GSH (words): less effective than 7-HF but more effective than flavone
A549 cells [1]; [7]
  activity at 25 µM: 78.2 ± 2.4%

## O=c1cc(-c2ccc(O)cc2)oc2cc(O)cc(O)c12 [Apigenin]
PC-3 cells [2]; [8]
  LDH rel. % con.: 142 % con.
PC-3 cells [2]; PC-3 cells, 48 hours (FIG. 20C)
  effect on curcumin-induced toxicity, LDH release: potentiated the curcumin's toxicity, but unexpectedly less than chrysin
PC-3 cells [3]
  Int. GSH % con.: 32 % con.
PC-3 cells [3]; PC-3 cells
  effect on intracellular GSH (words): one active flavone-like structure for inducing GSH depletion
HL-60 cells [4]; HL-60, 50 μM
  Int. GSH % con.: 66 % con.
A549 cells [5]; A549, 75 μM
  LDH rel. % con.: 284 % con.
A549 cells [1]; A549, 25 μM, 4 h
  Intracellular GSH levels, % compared to control: 17.1 ± 1.4%
A549 cells [1]; A549, 25 μM, 24 hours treatment
  Int. GSH % con.: 9 % con.
HL-60 cells [6]; HL-60, 50 μM
  LDH rel. % con.: 259 % con.

## O=c1cc(-c2ccccc2)oc2cc(O)c(O)c(O)c12 [Baicalein, 5,6,7 trihydroxyflavone]
PC-3 cells [2]; [8]
  LDH release, % of control at 50 µM: 94%
PC-3 cells [3]
  activity at 50 µM: 100%
HL-60 cells [4]
  activity at 75 µM: 82%
A549 cells [5]; [9]
  LDH release, % of control at 75 µM: 206%
A549 cells [1]; [10]
  activity at 50 µM: 41%
HL-60 cells [6]; HL-60, 50 μM
  LDH release, % of control at 50 µM: 129%

## COc1cc(/C=C/C(=O)CC(=O)/C=C/c2ccc(O)c(OC)c2)ccc1O [Curcumin, reference compound]
PC-3 cells [2]; [8]
  LDH release, % of control at 50 µM: 180%
PC-3 cells [3]
  activity at 25 µM: 170%
HL-60 cells [4]; HL-60, 25 μM
  activity at 25 µM: 221%
A549 cells [5]; [9]
  LDH release, % of control at 75 µM: 140%
A549 cells [1]; [10]
  activity at 50 µM: 53%
HL-60 cells [6]; HL-60, 25 μM
  LDH release, % of control at 25 µM: 180%

## Oc1cc(O)c2cc(O)c(-c3ccc(O)c(O)c3)[o+]c2c1 [Cyanidin]
PC-3 cells [2]; [8]
  LDH release, % of control at 50 µM: 93%
PC-3 cells [3]
  activity at 50 µM: 120%
HL-60 cells [4]
  activity at 75 µM: 95%
A549 cells [5]; [9]
  LDH release, % of control at 75 µM: 110%
A549 cells [1]; [11]
  activity at 75 µM: 82%
HL-60 cells [6]; HL-60, 50 μM
  LDH release, % of control at 50 µM: 110%

## Oc1cc(O)c2c(c1)O[C@H](c1ccc(O)c(O)c1)[C@H](O)C2 [Epicatechin, (−)-epicatechin]
PC-3 cells [2]; [8]
  LDH release, % of control at 50 µM: 88%
PC-3 cells [3]
  activity at 50 µM: 115%
HL-60 cells [4]
  activity at 75 µM: 90%
A549 cells [5]; [9]
  LDH release, % of control at 75 µM: 104%
A549 cells [1]; [11]
  activity at 75 µM: 47%
HL-60 cells [6]; HL-60, 50 μM
  LDH release, % of control at 50 µM: 76%

## COc1cc([C@@H]2c3cc4c(cc3[C@@H](O[C@@H]3O[C@@H]5CO[C@@H](C)O[C@H]5[C@H](O)[C@H]3O)[C@H]3COC(=O)[C@H]23)OCO4)cc(OC)c1O [Etoposide, reference compound]
PC-3 cells [2]; [8]
  LDH release, % of control at 50 µM: 124%
PC-3 cells [3]
  activity at 25 µM: 83%
HL-60 cells [4]
  effect on intracellular GSH (words): relatively effective for depleting GSH
HL-60 cells [4]; HL-60, 25 μM
  activity at 25 µM: 7%
A549 cells [5]; Homo sapiens, A549, 50 μM, read-out: LDH rel. % con.
  LDH release, % of control at 50 µM: 294%
A549 cells [1]; [10]
  activity at 50 µM: 55%
HL-60 cells [6]
  toxicity: toxic
HL-60 cells [6]; HL-60, 25 μM
  LDH release, % of control at 25 µM: 290%

## O=c1c(O)c(-c2ccc(O)c(O)c2)oc2cc(O)ccc12 [Fisetin]
PC-3 cells [2]; [8]
  LDH release, % of control at 50 µM: 109%
PC-3 cells [3]
  activity at 50 µM: 100%
HL-60 cells [4]
  effect on intracellular GSH (words): relatively effective for depleting GSH
HL-60 cells [4]; HL-60, 50 μM
  activity at 50 µM: 16%
A549 cells [5]; [9]
  LDH release, % of control at 75 µM: 267%
A549 cells [1]; [10]
  activity at 50 µM: 50%
HL-60 cells [6]
  toxicity: toxic
HL-60 cells [6]; HL-60, 50 μM
  LDH release, % of control at 50 µM: 166%

## O=c1cc(-c2ccccc2)oc2ccccc12 [Flavone, flavone]
PC-3 cells [2]; [8]
  LDH release, % of control at 50 µM: 91%
PC-3 cells [3]
  activity at 25 µM: 84%
HL-60 cells [4]; HL-60, 50 μM
  activity at 50 µM: 85%
A549 cells [5]; [9]
  LDH release, % of control at 75 µM: 164%
A549 cells [1]; [7]
  activity at 25 µM: 89.7 ± 0.6%
A549 cells [1]; A549, 25 μM, 4 h, read-out: Intracellular GSH levels, % compared to control
  activity at 25 µM: 29.7 ± 4.8%
A549 cells [1]; [12]
  activity at 25 µM: < 5%
HL-60 cells [6]; HL-60, 50 μM
  LDH release, % of control at 50 µM: 116%

## O=c1c(O)c(-c2ccccc2)oc2cc(O)cc(O)c12 [Galangin, 3,5,7 trihydroxyflavone]
PC-3 cells [2]; [8]
  LDH release, % of control at 50 µM: 140%
PC-3 cells [3]
  activity at 25 µM: 68%
HL-60 cells [4]; HL-60, 50 μM
  activity at 50 µM: 69%
A549 cells [5]; [9]
  LDH release, % of control at 75 µM: 155%
A549 cells [1]; [7]
  activity at 25 µM: 62.9 ± 0.4%
A549 cells [1]; [12]
  activity at 25 µM: < 5%
HL-60 cells [6]; HL-60, 50 μM
  LDH release, % of control at 50 µM: 114%

## C[C@]12CC[C@@H]3c4ccc(O)cc4CC[C@H]3[C@@H]1CC[C@@H]2O [β-Estradiol, β-estradiol, reference compound]
PC-3 cells [3]
  Int. GSH % con.: 98 % con.
HL-60 cells [4]; HL-60, 25 μM
  Int. GSH % con.: 70 % con.
A549 cells [1]; A549, 50 μM, 24 hours treatment
  Int. GSH % con.: 41 % con.
HL-60 cells [6]; HL-60, 25 μM
  LDH rel. % con.: 120 % con.
